Source: US20100069304A1, “PROTECTIVE EFFECTS OF INHIBITING THE INTERACTION OF CALMODULIN AND MUTANT HUNTINGTIN PROTEIN” (priority 2008, published 2010)
Entries after “also recorded” stand apart in the source; their conditions may differ.

Legend:
TGase = TGase activity in mouse striatal homogenates; format: in vivo; details: 500 μM GTPγS, all mouse groups
Experimental: TGase II Activity Assay. TGase activity was measured by detecting the incorporation of a biotinylated TGase amine substrate, 5-(biotinamido)pentylamine (Pierce, Rockford, Ill.) into N,N'-dimethylcasein (Calbiochem, San Diego, Calif.) as previously described (Dudek et al., 2009). 96-well Immulon 4 HBX plates (Dynatech, Franklin, Mass.) were coated with 100 μl of N,N′-dimethylcasein (20 mg/ml) in 0.05M sodium bicarbonate, and stored at 4° C. overnight. After the unbound N,N′-dimethylcasein was discarded, the plate was washed with PBS and blocked with nonfat dry milk (2% milk in PBS) for 1 hour at 37° C., followed by 3 washes with PBS. Striatum from the various mice were homogenized in 0.1 M Tris-HCl pH 8.3, 1 mM EDTA, 1 mM PMSF, and protease inhibitor cocktail. Striatal homogenates (15 μg of protein/sample) were added to the plate with 0.1 M Tris-HCl pH 8.5, 0.15 M NaCl, 5 mM DTT, 0.5 mM biotin-labeled pentylamine, and 5 mM CaCl2. The mixture was incubated for 1 hour at 37° C. The plate was washed with TBS and 0.001% Tween followed by incubation with streptavidin conjugated to HRP (Jackson ImmunoResearch, West Grove, Pa.) for 1 hour at room temperature. […] Then the reaction was stopped with 3N sulfuric acid and the absorbance was read at 450 nm. […] Each sample was measured in triplicate.

[1] = molecular target: T1, htt-exon1-44Q binding to CaM (Homo sapiens, UniProt P42858, INS38QQQQQQQQQQQQQQQQQQQQQQQ); test: In vitro mutant huntingtin-calmodulin binding (calmodulin-agarose)
T1 construct: encoding exon 1 of huntingtin with 44 glutamine residues; MBP; host or cells: Escherichia coli
T1 sequence (P42858 with tags, fused parts or gaps with the stated changes limits assumed): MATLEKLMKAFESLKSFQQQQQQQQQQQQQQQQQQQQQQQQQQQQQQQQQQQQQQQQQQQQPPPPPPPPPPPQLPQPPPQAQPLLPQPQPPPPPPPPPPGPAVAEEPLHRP

HD transgenic mice = details: cited from earlier work
[2] = tested on: cells expressing mutant huntingtin and TG; details: cited from earlier work
[3] = molecular target: T2, mutant huntingtin (htt-N63-148Q) (Homo sapiens, UniProt P42858, INS26QQQQQQQQQQ/INS27QQQQQQQQQQ/INS28QQQQQQQQQQ/INS29QQQQQQQQQQ/INS30QQQQQQQQQQ/INS31QQQQQQQQQQ/INS32QQQQQQQQQQ/INS33QQQQQQQQQQ/INS34QQQQQQQQQQ/INS35QQQQQQQQQQ/INS36QQQQQQQQQQ/INS37QQQQQQQQQQ/INS38QQQQQQQ); test: TG-modified huntingtin (81D4 immunoprecipitation and immunoblot) in transfected HEK-293T cells; format: cell-based; details: HEK-293T cells with htt-N63-148Q, TG2 and CaM construct vs vector control
T2 construct: myc; expressed in transfected cells; host or cells: HEK-293T
T2 sequence (P42858 with tags, fused parts or gaps limits assumed, stated change not applied): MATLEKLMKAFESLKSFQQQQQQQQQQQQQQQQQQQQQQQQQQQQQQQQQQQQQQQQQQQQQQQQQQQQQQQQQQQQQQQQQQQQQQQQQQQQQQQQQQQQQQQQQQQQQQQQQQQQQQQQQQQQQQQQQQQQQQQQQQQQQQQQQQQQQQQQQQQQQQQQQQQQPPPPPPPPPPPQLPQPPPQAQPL
Experimental: HEK-293T cells were grown in OptiMEM reduced serum medium (Invitrogen, Carlsbad, Calif.) containing nonessential amino acids, antimycotic and antibiotic agents, and 10% FBS, in the presence of 5% CO2 at 37° C. Cells were grown to 80-90% confluency and transfected using Lipofectamine Plus (Invitrogen, Carlsbald, Calif.). […] Forty-eight hours after transfection, cells were harvested and resuspened in lysis buffer containing 50 mM Tris-HCl, pH 8.8, 100 mM NaCl, 5 mM MgCl2, 0.05% NP-40, 1 mM EDTA (Tang T S, Tu H, Chan E Y, et al. Huntingtin and huntingtin-associated protein 1 influence neuronal calcium signaling mediated by inositol-(1,4,5)triphosphate receptor type 1. Neuron 2003;39:227-239) and 1:1,000 protease inhibitor mixture (Sigma, St. Louis, Mo.). […]
Immunoblots. […] Signal was detected using enhanced chemiluminescence (ECL) Western blotting detection reagents (Amersham Biosciences, Piscataway, N.J.). Immunoblots were quantified by calculating the sum of the densities of all of the pixels within each protein band as the integrated optical density (IOD), using Scion Image for Windows (Scion, Frederick, Md.). Film background IOD was measured and subtracted from each band IOD. Measurements were done in triplicate and the mean was calculated.

transglutaminase = test: In situ transglutaminase assay in intact cells; format: cell-based, human; details: SHSY5Y-htt-N63-148Q cells
Experimental: In situ transglutaminase assay. In this in situ assay, transglutaminase activity is measured in intact cells via incorporation of a polyamine and the presence of the transglutaminase-catalyzed bond. Forty-two hours post viral infection, cells were treated with 2 mM 5-(biotinamido)pentylamine, a biotinylated polyamine (Pierce, Rockford, Ill.), and 6 hours post polyamine treatment, cells were harvested and lysed in 0.1 M Tris-HCl pH 8.3, 1 mM EDTA, 1 mM PMSF, and protease inhibitor cocktail. 96-well Immulon 4 HBX plates (Dynatech, Franklin, Mass.) were coated with anti-ε-(γ-glutamyl)lysine (81D4) antibody (CovalAb, Lyon, France) in 0.1 M Na2HPO4.7 H2O pH 9 overnight at 4° C. Then the plates were washed with PBS and blocked with 2% milk in PBS for 1 hour at room temperature, followed by 3 washes with PBS with 0.0375% Tween. Cell lysates (50 μg of protein/sample/well) were added to the wells in triplicates and incubated for 1 hour at 37° C. The plate was washed with PBS and 0.0375% Tween, followed by incubation with streptavidin conjugated to HRP (Jackson ImmunoResearch, West Grove, Pa.) for 1 hour at room temperature. After final washes, a 1×TMB substrate solution (eBioscience, SanDiego, Calif.) was added and color was allowed to develop for 5-10 minutes. The reaction was stopped with 3 N sulfuric acid and the absorbance was read at 450 nm.

Nc1nc2c(ncn2[C@@H]2O[C@H](COP(=O)(O)OP(=O)(O)OP(O)(O)=S)[C@@H](O)[C@H]2O)c(=O)[nH]1 [GTPγS]
reduction of TGase activity (TGase): at least 60%

Cl.NCCCCCCNS(=O)(=O)c1cccc2ccccc12 [W-5, N-(6-Aminohexyl)-1-naphthalenesulfonamide hydrochloride]
amount of CaM-bound htt-exon1-44Q ([1]; 664 μM W-5 along with 10 μM of CaM-peptide): significantly increased | amount of CaM-bound htt-exon1-44Q ([1]; W-5 alone): did not affect the amount of CaM-bound htt-exonl-44Q

NCCSSCCN [cystamine]
survival (HD transgenic mice): increase survival | cell survival [2]: increased cell survival | cross-linking of huntingtin [2]: decreased the cross-linking of huntingtin

CaM-N-term: calmodulin fragment: first 76 amino acids, contains the first two Ca2+ binding sites
TG-modified huntingtin compared to control cells (in words) [3]: no significant decrease in TG-modified huntingtin, but rather an increase; also recorded: did not reduce the TG-catalyzed modifications of huntingtin

GDTVEREKDAYNSLEGFDNTIHTLRADIGMVEEVAKSKRDEEFLE [scram-CaM-peptide]
total TG activity in situ between infections (transglutaminase): no significant difference in total TG activity
